According to patent publication US20230301969A1, “DOSING SCHEDULE FOR A METHOD OF TREATMENT WITH DHODH INHIBITORS” (Bayer Aktiengesellschaft, priority 2020, published 2023):
Entries after “also recorded” stand apart in the source; their conditions may differ. Like-named read-outs stand apart in the source and are kept apart here.

Tests used:
[1] = system: Mantle cell lymphoma xenograft model Z138; experiment: Mantle cell lymphoma Z138 subcutaneous xenograft, tumor volume; format: in vivo, SCID mice; conditions: start day 20
Experimental: (§1) Tumor cells were injected subcutaneously into the flank of the mice. Treatment was initiated at a predefined tumor size after cell inoculation. BAY 2402234 was applied orally (p.o.) at various dose levels and schedules (daily or intermittent). BAY 2402234 was prepared in solution in PEG400/ETOH 9/1. Animal body weight during the study was monitored at least twice weekly. Subcutaneous tumors were measured with a caliper (length and width) at least twice a week, depending on the doubling time of the tumor. Values are presented as volume. Efficacy was calculated on a specific day according to the formula: T/C (treatment/control ratio)=(mean tumor volume from the treated group/mean tumor volume from the vehicle group). Tumor volume was calculated using (width^2×length)/2.
(§2) Mantle Cell Lymphoma Z138 cells were inoculated in the flank of SCID mice and 20 days after implantation tumors were measured and animals were randomized at an average tumor volume of around 100 mm^3. Treatment with DHODH Inhibitor BAY 2402234 was started at time of randomization. Either daily dosing of 5 mg/kg or 10 mg/kg at a 4 days on/3 days off schedule or 5 mg/kg at a 5 days on 2 days off was used and the drug was given orally in 90/10 PEG400/EtOH formulation. The daily dosing sums up to a total weekly dose of 35 mg/kg, while the 4 days on/3 days off schedule sums up to a 40 mg/kg weekly dose and the 5 days on 2 days off sums up to 25 mg/kg weekly dose.

[2] = mouse, in vivo
Experimental: as §2, with “AML THP1” for “Mantle Cell Lymphoma Z138”, “16” for “20”, “BAY2402234” for “BAY 2402234”, “schedule” for “schedule or 5 mg/kg at a 5 days on 2 days off”, “formulation. […]” for “formulation.”, “weekly” for “weekly dose and the 5 days on 2 days off sums up to 25 mg/kg weekly”

[3] = system: acute myeloid leukemia xenograft model THP1; experiment: AML THP1 subcutaneous xenograft, tumor volume; format: in vivo, SCID mice; conditions: start day 16, 7 days of treatment
Experimental: as §1
as §2, with “AML THP1” for “Mantle Cell Lymphoma Z138”, “16” for “20”, “BAY2402234” for “BAY 2402234”, “schedule” for “schedule or 5 mg/kg at a 5 days on 2 days off”, “formulation. […]” for “formulation.”, “weekly” for “weekly dose and the 5 days on 2 days off sums up to 25 mg/kg weekly”

[4] = Body weight of animals in the HT29 xenograft model (tolerability); format: in vivo, mice; conditions: for body weight / tolerability: 5 mg/kg p.o. 5 days on/2 days off, course of the experiment
Experimental: as §1
(§3) Colorectal cancer cells were inoculated in the flank of mice and 9 days after implantation tumors were measured and animals were randomized at an average tumor volume of around 80 mm^3. Treatment with DHODH Inhibitor BAY2402234 was started at time of randomization. Either daily dosing of 5 mg/kg or 10 mg/kg at a 5 days on/2 days off schedule or 5 mg/kg at a 5 days on 2 days off was used and the drug was given orally in 90/10 PEG400/EtOH formulation. The daily dosing sums up to a total weekly dose of 35 mg/kg, while the 5 days on/2 days off schedule sums up to a 50 or a 25 mg/kg weekly dose respectively.

[5] = system: colorectal cancer xenograft model HT29; experiment: Colorectal cancer HT29 subcutaneous xenograft, tumor volume; format: in vivo, mice; conditions: start day 9
Experimental: as §1, §3

solid cancer = conditions: weekly doses or 5 days on 23 days off schedule, cited from earlier work
[6] = 5 mg/kg p.o. 5 days on/2 days off (25 mg/kg weekly)
[7] = 5 mg/kg p.o. daily (35 mg/kg weekly)
[8] = 10 mg/kg p.o. 4 days on/3 days off (40 mg/kg weekly)

| SMILES | development of tumor volume / efficacy [1, 6] | development of tumor volume / efficacy [1, 7] | development of tumor volume / efficacy [1, 8] | dose relative to maximal tolerated dose [2] | development of tumor volume / efficacy [3, 7] | development of tumor volume / efficacy [3, 8] | body weight / tolerability [4] | body weight / tolerability ([4]; listed as BAY2402234) | body weight loss ([4]; 5 mg/kg p.o. daily, at experiments end) | body weight loss ([4]; 10 mg/kg p.o. 5 days on/2 days off, at the end of the experiment) | development of tumor volume / efficacy [5, 6] | development of tumor volume / efficacy ([5]; 5 mg/kg p.o. 5 days on/2 days off (25 mg/kg weekly), listed as BAY2402234) | development of tumor volume / efficacy [5, 7] | development of tumor volume / efficacy ([5]; 5 mg/kg p.o. daily (35 mg/kg weekly), listed as BAY2402234) | development of tumor volume / efficacy ([5]; 10 mg/kg p.o. 5 days on/2 days off (50 mg/kg weekly)) | development of tumor volume / efficacy ([5]; 10 mg/kg p.o. 5 days on/2 days off (50 mg/kg weekly), listed as BAY2402234) | clinical activity in solid cancer indications (solid cancer) | clinical activity in solid cancer indications (solid cancer; listed as Brequinar sodium) |
| --- | --- | --- | --- | --- | --- | --- | --- | --- | --- | --- | --- | --- | --- | --- | --- | --- | --- | --- |
| CCn1c(CO)nn(-c2cc(O[C@@H](C)C(F)(F)F)c(C(=O)Nc3c(F)cccc3Cl)cc2F)c1=O [BAY 2402234, N-(2-chloro-6-fluorophenyl)-4-[4-ethyl-3-(hydroxymethyl)-5-oxo-4,5-dihydro-1H-1,2,4-triazol-1-yl]-5-fluoro-2-{[(2S)-1,1,1-trifluoropropan-2-yl]oxy}benzamide] | shrinkage of the tumors; also recorded: tumor regression | shrinkage of the tumors; also recorded: tumor regression | shrinkage of the tumors; also recorded: tumor regression | close to the maximal tolerated dose | stable disease | stable disease | relative constant bodyweight | best tolerated | above 10% | around 4% | tumor growth inhibition | tumor growth delay | tumor growth inhibition | tumor growth delay | tumor growth inhibition; also recorded: slightly stronger | tumor growth delay; also recorded: slightly more efficacious |  |  |
| Cc1c(-c2ccc(-c3ccccc3F)cc2)nc2ccc(F)cc2c1C(=O)O [Brequinar, 6-fluoro-2-(2′-fluoro-[1,1′-biphenyl]-4-yl)-3-methylquinoline-4-carboxylic acid] |  |  |  |  |  |  |  |  |  |  |  |  |  |  |  |  | failed to show sufficient clinical activity | ineffective |
